Assay [1] addresses E. coli PBP3 (Escherichia coli (strain K12), UniProt P0AD68). As to the kind of experiment: E. coli PBP3 Bocillin-FL fluorescence polarization competition binding assay. In outline: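 FP competition: 1.5 μM PBP, 0.1 μM Bocillin-FL, cpd 0–1000 μM; 50 mM Hepes pH 8.0/300 mM NaCl/5% glycerol. Read 490/520 nm immediately after Bocillin-FL addition, 60 min. EC50 = cpd conc. lowering probe binding.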
For orientation: Fluorescence polarisation rises when a labelled molecule tumbles more slowly, as on binding a larger partner.

Assay [2] deals with E. coli PBP1a (Escherichia coli (strain K12), UniProt P02918). The experiment in a line: Radioligand competition binding assay with 14C-labeled boronic acid probe, PBP1a. From the text:
To determine the ability of boronic acid-based test PBP inhibitors to bind Penicillin Binding Proteins (PBPs), a radio-labelled boronic acid PBP inhibitor
[drawing 751] was used in competition binding assays to determine boronic acid PBP inhibitor binding to PBP1a or PBP1b from Escherichia coli. PBP1a and PBP1b were purified as described previously (Bertsche, U.; et al., J. Biol. Chem. 2005, 280 (45), 38096-38101; Born, P.; et al., J. Biol. Chem. 2006. 281 (37), 26985-26993). To establish assay conditions for competition binding, an enzyme titration/saturation binding experiment was performed. Saturation binding was performed in a buffer comprised of 20 mM Tris (pH 7.5), 500 mM NaCl and 0.1% (v/v) TritonX-100, with PBP1a/PBP1b at a final concentration of 0.1 μM and Compound A at final concentrations ranging from 0-100 μM. Mixtures were incubated for 60 minutes, then applied to Zeba Spin Desalting columns or plates (ThermoFisher Scientific) and centrifuged at 1000-1500×g for 2 minutes. The flow through, containing PBP bound with Compound A, was recovered and 100 μL mixed with 5 mL of UltimaGold liquid scintillation cocktail (Perkin Elmer), and the radioactivity counted using a Beckman Coulter LS 6500 Multipurpose scintillation counter. PBP binding of Compound A approached saturation at 20 μM of ^14C-labeled probe. The competition binding assay was validated using the beta-lactam ampicillin, with Compound A at a final concentration of 20 μM, PBP1a/PBP1b at a final concentration of 0.1 μM. PBP1a/PBP1b was incubated with ampicillin in a 96-well microplate for 60 minutes, then Compound A was added and the mixtures incubated for an additional 60 minutes. The mixtures were then applied to Zeba Spin desalting plates and centrifuged at 1000×g for 2 minutes. The flow through was recovered and 100 μl mixed with 5 ml of UltimaGold liquid scintillation cocktail and the radioactivity counted. […] Binding assays with boronic acid PBP inhibitors were performed in an identical fashion. The potency of boronic acid PBP inhibitors was reported as the EC50 value.
For orientation: Displacement assays read how much labelled ligand stays bound in the presence of the test substance.

For assay [3], the system named is engineered strain of Escherichia coli harboring CTX-M15. The experiment in a line: microbe, parasite or virus in culture. The note with it: Escherichia coli, read-out: Microbiological Activity (MIC in mg/L), E. coli DH5α/pLBII-CTX-M15, engineered strain producing CTX-M15. It is filed as cell-based.
The test system of assay [4] is E. coli DH5α empty pLBII vector control strain. As to the kind of experiment: microbe, parasite or virus in culture. The note with it: Escherichia coli, read-out: Microbiological Activity (MIC in mg/L), E. coli DH5α/pLBII. It is filed as cell-based, Escherichia coli. The method, then: Briefly, cryo-preserved bacterial cultures of challenge strains are streaked for isolation on appropriate agar medium, in this case Mueller Hinton II agar. Following incubation to allow growth of the colonies, plates are sealed with parafilm and stored refrigerated for up to two weeks. For preparation of assay inoculum and to ensure low variability, at least 5 colonies are picked from the agar plates with an inoculating loop and aseptically transferred to a culture tube containing 3 mL of Mueller-Hinton Broth (supplemented with divalent cations to required levels based on Manufacturers' certification). The broth culture is grown for 3-5 hours at 37° C. with shaking at 200 rpm. Meanwhile, 2-fold serial dilutions of test compounds are conducted in a 96 well plate with a final volume of 75 μL per well at 2-fold the final desired concentration. After the dilution plates are set up the growing cultures are then diluted in a cuvette containing MH II broth and the optical density is measured at 600 nm. The Inoculum is diluted such that 75 μL of this culture in Mueller-Hinton Broth results in a starting bacterial concentration of 5×10^5 CFU/mL when added to the dilution plates. The plates are incubated for 16-20 hours at 37° C. The MIC values are read visually as the lowest concentration well with no bacterial growth.
To determine if test compounds were affected by CTX-M15, the most abundant extended spectrum […] in clinical settings worldwide, the inhibition of the growth of an engineered strain of Escherichia coli harboring CTX-M15 was tested. This strain was constructed by cloning the gene encoding CTX-M15 into the NdeI and BamHI restriction endonuclease sites of plasmid pLBII, placing the gene(s) under the control of the Lac promoter. The constructed expression plasmid for CTX-M15 was used to transform competent E. coli DH5α cells to make the engineered strain, including an empty pLBII vector control strain. The classic cell based broth microdilution MIC assay was employed as described above with the addition of control antibiotics, known to be degraded by β-lactamases (Ceftazidime, piperacillin and piperacillin+tazobactam).

The target in assay [5] is E. coli PBP1b (Escherichia coli (strain K12), UniProt P02919). As to the kind of experiment: Radioligand competition binding assay with 14C-labeled boronic acid probe, PBP1b.
Sequence of E. coli PBP1b (P02919 whole entry): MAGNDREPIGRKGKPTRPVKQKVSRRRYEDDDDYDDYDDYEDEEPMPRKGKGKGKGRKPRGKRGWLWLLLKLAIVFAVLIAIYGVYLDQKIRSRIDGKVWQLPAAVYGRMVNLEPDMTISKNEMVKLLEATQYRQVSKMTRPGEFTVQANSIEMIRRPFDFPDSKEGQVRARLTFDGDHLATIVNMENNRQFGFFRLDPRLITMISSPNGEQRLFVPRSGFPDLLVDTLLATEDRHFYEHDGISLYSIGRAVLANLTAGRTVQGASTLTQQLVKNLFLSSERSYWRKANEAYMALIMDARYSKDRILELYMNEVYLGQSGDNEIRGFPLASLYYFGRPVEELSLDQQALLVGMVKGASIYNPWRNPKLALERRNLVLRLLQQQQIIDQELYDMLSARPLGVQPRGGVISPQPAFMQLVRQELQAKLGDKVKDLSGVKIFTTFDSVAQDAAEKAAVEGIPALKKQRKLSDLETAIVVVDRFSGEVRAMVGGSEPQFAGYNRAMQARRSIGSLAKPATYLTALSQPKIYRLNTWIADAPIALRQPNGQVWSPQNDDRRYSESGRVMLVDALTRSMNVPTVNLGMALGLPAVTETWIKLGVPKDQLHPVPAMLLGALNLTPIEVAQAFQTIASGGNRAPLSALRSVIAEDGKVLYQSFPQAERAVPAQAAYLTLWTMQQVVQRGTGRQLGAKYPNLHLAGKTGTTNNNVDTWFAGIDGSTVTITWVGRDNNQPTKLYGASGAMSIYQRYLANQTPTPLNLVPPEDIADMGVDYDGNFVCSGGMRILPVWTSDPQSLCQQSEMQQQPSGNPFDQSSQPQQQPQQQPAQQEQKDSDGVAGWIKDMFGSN
The test system of assay [6] is E. coli ATCC 25922. The experiment in a line: Broth microdilution MIC, E. coli ATCC 25922. It is filed as cell-based. The settings on record: Escherichia coli, ATCC25922; E. coli ATCC 25922, broth microdilution; read-out: MIC E. coli 25922. In outline: (§1)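 Colonies from Mueller Hinton II agar were grown 3-5 hours at 37° C in cation-supplemented broth, adjusted by OD600, then added to 2-fold compound dilutions at 5×10^5 CFU/mL. After 16-20 hours at 37° C, MICs were scored visually.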

Assay [7] relates to E. coli AG100. As to the kind of experiment: Broth microdilution MIC, E. coli AG100 (wild-type parent). It is filed as cell-based. The settings on record: Escherichia coli; wild-type parent E. coli AG100, broth microdilution; read-out: MIC E. coli AG100. In outline: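 Broth microdilution in cation-supplemented Mueller-Hinton broth, 2-fold serial compound dilutions, inoculum 5×10^5 CFU/mL from 3-5 h log culture.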
Background: Broth dilution looks for growth in wells or tubes with falling amounts of substance.

In assay [8] the test system is E. coli 901C. The experiment in a line: microbe, parasite or virus in culture. The note with it: Escherichia coli; hyper-permeable E. coli 901C, broth microdilution; read-out: MIC E. coli 901C. It is filed as cell-based. Put shortly: as §1
The test system of assay [9] is E. coli AG100A. The experiment in a line: microbe, parasite or virus in culture. The note with it: Escherichia coli, read-out: MIC E. coli AG100A. It is filed as cell-based. Put shortly:
as §1

Assay [10] relates to K. pneumoniae UMM. The experiment in a line: microbe, parasite or virus in culture. It is filed as cell-based. The settings on record: Klebsiella pneumoniae; K. pneumoniae UMM producing SHV-5 and KPC-2; read-out: MIC K. pneumoniae UMM. Put shortly: as §1
Assay [11] has as its system E. coli D22. As to the kind of experiment: microbe, parasite or virus in culture. It is filed as cell-based. The note with it: Escherichia coli; hyper-permeable E. coli D22, broth microdilution; read-out: MIC E. coli D22. In outline:
as §1

In assay [12] the test system is K. pneumoniae SI-117. As to the kind of experiment: microbe, parasite or virus in culture. It is filed as cell-based. The settings on record: Klebsiella pneumoniae, SI117, read-out: MIC K. pneumoniae SI-117. In outline: as §1
The test system of assay [13] is K. pneumoniae 848844. As to the kind of experiment: microbe, parasite or virus in culture. It is filed as cell-based, Klebsiella pneumoniae. The settings on record: Klebsiella pneumoniae; K. pneumoniae 848844 producing SHV-11 and KPC-2; read-out: MIC K. pneumoniae 848844. Put shortly: as §1
Setting [14] is: fluorescence polarization competition binding with Bocillin-FL, read-out: E. coli K12 PBP3 Potency.

Converted amounts (≈) assume the structure as drawn. Counter-ions that a name gives are not always drawn. Like-named read-outs stand apart in the source and are kept apart here. Bounds are passed on as bounds.

Sequence of E. coli PBP1a (P02918 whole entry): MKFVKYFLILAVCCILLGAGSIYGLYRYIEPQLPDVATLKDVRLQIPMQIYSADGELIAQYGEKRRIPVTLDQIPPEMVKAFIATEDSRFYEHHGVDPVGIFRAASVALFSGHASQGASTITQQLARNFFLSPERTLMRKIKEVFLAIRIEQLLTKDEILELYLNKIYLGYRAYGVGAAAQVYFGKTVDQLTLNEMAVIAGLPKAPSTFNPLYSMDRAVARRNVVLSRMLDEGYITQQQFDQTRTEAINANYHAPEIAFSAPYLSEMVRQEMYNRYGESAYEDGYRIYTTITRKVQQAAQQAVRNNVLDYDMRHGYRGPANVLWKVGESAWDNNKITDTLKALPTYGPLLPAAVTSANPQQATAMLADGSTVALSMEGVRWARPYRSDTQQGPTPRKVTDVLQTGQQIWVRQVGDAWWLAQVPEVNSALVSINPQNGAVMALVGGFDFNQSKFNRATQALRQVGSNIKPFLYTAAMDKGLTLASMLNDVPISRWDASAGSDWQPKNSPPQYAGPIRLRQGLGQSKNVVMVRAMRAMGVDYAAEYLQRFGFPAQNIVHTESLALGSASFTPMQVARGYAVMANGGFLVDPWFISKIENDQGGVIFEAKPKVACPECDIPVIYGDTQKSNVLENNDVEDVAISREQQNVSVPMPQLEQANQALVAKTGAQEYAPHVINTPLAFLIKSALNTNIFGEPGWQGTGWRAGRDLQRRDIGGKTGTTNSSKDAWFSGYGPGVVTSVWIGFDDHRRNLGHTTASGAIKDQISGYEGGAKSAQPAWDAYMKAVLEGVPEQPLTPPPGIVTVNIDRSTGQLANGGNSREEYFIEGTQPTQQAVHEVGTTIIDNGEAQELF
Sequence of E. coli PBP3 (P0AD68 whole entry): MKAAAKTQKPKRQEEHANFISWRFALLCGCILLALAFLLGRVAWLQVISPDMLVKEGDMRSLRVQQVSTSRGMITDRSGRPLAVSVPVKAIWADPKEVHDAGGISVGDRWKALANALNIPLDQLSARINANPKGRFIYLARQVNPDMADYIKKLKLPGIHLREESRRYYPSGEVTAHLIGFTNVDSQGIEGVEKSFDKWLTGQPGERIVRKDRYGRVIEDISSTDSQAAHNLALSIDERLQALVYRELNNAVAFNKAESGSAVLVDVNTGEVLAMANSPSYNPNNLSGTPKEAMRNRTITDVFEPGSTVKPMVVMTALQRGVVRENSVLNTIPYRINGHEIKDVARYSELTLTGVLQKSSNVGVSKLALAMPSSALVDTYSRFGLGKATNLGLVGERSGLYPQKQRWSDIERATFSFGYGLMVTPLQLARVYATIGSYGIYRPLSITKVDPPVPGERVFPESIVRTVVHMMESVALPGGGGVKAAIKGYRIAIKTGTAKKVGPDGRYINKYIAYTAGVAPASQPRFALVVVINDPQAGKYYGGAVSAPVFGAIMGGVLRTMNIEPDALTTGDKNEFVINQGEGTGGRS

Regarding `CCN1CCN(C(=O)NC(C(=O)N[C@H]2Cc3cccc(C(=O)O)c3OB2O)c2ccc(OC)cc2)C(=O)C1=O` (stereo partly drawn) [Example 26, (3R)-3-(2-(4-ethyl-2,3-dioxopiperazine-1-carboxamido)-2-(4-methoxyphenyl)acetamido)-2-hydroxy-3,4-dihydro-2H-benzo[e][1,2]oxaborinine-8-carboxylic acid], the values for the EC50 in assay [1] and in assay [2] were 30 to 500 µM and under 10 µM, respectively. For the same molecule, the MIC in assay [3] and in [4] was 128 to 256 mg/L (≈ 238 to 476 µM) each time.

In the case of `CCN1CCN(C(=O)NC(C(=O)N[C@H]2Cc3cccc(C(=O)O)c3OB2O)c2cc(O)c(O)cc2Cl)C(=O)C1=O` (stereo partly drawn) [Example 85, (3R)-3-(2-(2-chloro-4,5-dihydroxyphenyl)-2-(4-ethyl-2,3-dioxopiperazine-1-carboxamido)acetamido)-2-hydroxy-3,4-dihydro-2H-benzo[e][1,2]oxaborinine-8-carboxylic acid], the EC50 in [2] and in [5] was under 10 µM in each case. The MIC was 8 to 16 µg/mL in assay [6]; 8 to 16 µg/mL in assay [7]; 0.5 to 1 µg/mL in assay [8]; 8 to 16 µg/mL in [9]; 32 to 64 µg/mL in [10]; 32 to 64 mg/L (≈ 55.7 to 111 µM) in [3].

With `Nc1ncc(C(NC(=O)N2CCN(CCF)C(=O)C2=O)C(=O)N[C@H]2Cc3cccc(C(=O)O)c3OB2O)s1` (stereo partly drawn) [Example 100, (3R)-3-(2-(2-aminothiazol-5-yl)-2-(4-(2-fluoroethyl)-2,3-dioxopiperazine-1-carboxamido)acetamido)-2-hydroxy-3,4-dihydro-2H-benzo[e][1,2]oxaborinine-8-carboxylic acid], the EC50 in assay [1] was in the range of 30 to 500 µM; in assay [2], 10 to 100 µM. For the same molecule, the MIC in assay [6] lay in the range of 32 to 64 µg/mL; in [7] it was 32 to 64 µg/mL; in assay [8], 0.5 to 1 µg/mL; in assay [9], 2 to 4 µg/mL; in [11], 8 to 16 µg/mL; in [12], 8 to 16 µg/mL. Also, the MIC in assay [10] lay in the range of 8 to 16 µg/mL; in assay [13] it was 32 to 64 µg/mL; in assay [3] it was 8 to 16 mg/L (≈ 14.6 to 29.2 µM).

In the case of `CCN1CCN(C(=O)NC(C(=O)N[C@H]2Cc3cccc(C(=O)O)c3OB2O)c2ccc(O)c(O)c2)C(=O)C1=O` (stereo partly drawn) [Example 22, (3R)-3-(2-(3,4-dihydroxyphenyl)-2-(4-ethyl-2,3-dioxopiperazine-1-carboxamido)acetamido)-2-hydroxy-3,4-dihydro-2H-benzo[e][1,2]oxaborinine-8-carboxylic acid], the EC50 in assay [1] (setting [14]) is under 30 µM; in assay [2], under 10 µM; in assay [5] it was under 10 µM. Also, the MIC in assay [6] was in the range of 8 to 16 µg/mL; in assay [7], 8 to 16 µg/mL; in assay [8] it was 0.5 to 1 µg/mL; in [9] it was 2 to 4 µg/mL; in assay [10] it was 8 to 16 µg/mL; in assay [3], 8 to 16 mg/L (≈ 14.8 to 29.6 µM). Also, in assay [4], the MIC was 8 to 16 mg/L (≈ 14.8 to 29.6 µM).

Regarding `CCN1CCN(C(=O)NC(C(=O)N[C@H]2Cc3cccc(C(=O)O)c3OB2O)c2cc(O)c(O)c(Cl)c2)C(=O)C1=O` (stereo partly drawn) [Example 45, (3R)-3-(2-(3-chloro-4,5-dihydroxyphenyl)-2-(4-ethyl-2,3-dioxopiperazine-1-carboxamido)acetamido)-2-hydroxy-3,4-dihydro-2H-benzo[e][1,2]oxaborinine-8-carboxylic acid], the EC50 in [1] (setting [14]) is under 30 µM; in [2], under 10 µM; in assay [5], under 10 µM. Also, the MIC is 8 to 16 µg/mL in assay [6]; 8 to 16 µg/mL in assay [7]; 0.5 to 1 µg/mL in [8]; 8 to 16 µg/mL in assay [9]; 8 to 16 µg/mL in assay [10]; 8 to 16 mg/L (≈ 13.9 to 27.8 µM) in assay [3]. Further, in [4], the MIC fell in the range of 8 to 16 mg/L (≈ 13.9 to 27.8 µM).

Regarding `CCN1CCN(C(=O)NC(C(=O)N[C@H]2Cc3cccc(C(=O)O)c3OB2O)c2ccc(O)c(OCCN)c2)C(=O)C1=O` (stereo partly drawn) [Example 49, (3R)-3-(2-(3-(2-aminoethoxy)-4-hydroxyphenyl)-2-(4-ethyl-2,3-dioxopiperazine-1-carboxamido)acetamido)-2-hydroxy-3,4-dihydro-2H-benzo[e][1,2]oxaborinine-8-carboxylic acid], the EC50 in [1] was 30 to 500 µM; in assay [2], under 10 µM. In addition, the MIC in assay [4] was in the range of 32 to 64 mg/L (≈ 54.9 to 110 µM).

As to `CC1(C)S[C@@H]2[C@H](NC(=O)[C@H](N)c3ccccc3)C(=O)N2[C@H]1C(=O)O` [ampicillin, reference compound], the EC50 in assay [1] (assay validation with beta-lactams, PBP 1.5 μM, Bocillin-FL 0.1 μM, read-out: EC50 for PBP3 (reduction of Bocillin-FL binding)) is 1.4 µM; in assay [2] (assay validation, Compound A 20 μM, PBP1a/PBP1b 0.1 μM, read-out: EC50 (inhibition of binding of Compound A) PBP1a), under 0.5 µM; in [5] (assay validation, Compound A 20 μM, PBP1a/PBP1b 0.1 μM, read-out: EC50 (inhibition of binding of Compound A) PBP1b) it was under 0.5 µM.

`CCN1CCN(C(=O)N[C@H](CCN)C(=O)N[C@H]2Cc3cccc(C(=O)O)c3OB2O)C(=O)C1=O` [Example 17, (R)-3-((R)-4-amino-2-(4-ethyl-2,3-dioxopiperazine-1-carboxamido)butanamido)-2-hydroxy-3,4-dihydro-2H-benzo[e][1,2]oxaborinine-8-carboxylic acid, trifluoroacetic acid salt]: the EC50 in [1] (setting [14]) was over 500 µM; in [2], under 10 µM. The MIC in [3] was 128 to 256 mg/L; in [4] it was over 512 mg/L.

Source of the values: patent publication US12173018B2, “Penicillin-binding protein inhibitors” (priority 2018, dated 2024).
